From US8541572B2

Legend:
[1] = Area under the curve determination of plasma levels in rats (rrAUC); assay type: in vivo; conditions: rat, oral 10 mg/kg, plasma 0.5-6 h; read-out: RR AUC (nM · h), rapid rat AUC (rrAUC)
[2] = test system: TNF-α production in LPS-stimulated human whole blood; assay: Inhibition of TNF-α production from human whole blood (hWBA); assay type: cell-based; conditions: IC50 for TNF-α production, LPS-stimulated human whole blood; read-out: hWBA

AUC [1] [µM·h] | IC50 [2] [nM] | SMILES
0.042 | 243 | COc1ccc2c(c1)C(=O)N(C[C@@]1(C#Cc3ccc(C4(C)NC(=O)NC4=O)c(F)c3)NC(=O)NC1=O)C2 (stereo partly shown) [Compound 2282]
0.014 | 137 | COc1ccc2c(c1)C(=O)N(C[C@@]1(C#Cc3ccc4c(c3)CCCC43NC(=O)NC3=O)NC(=O)NC1=O)C2 (stereo partly shown) [Compound 2312]
